# Activity calls are given as the source filed them. No cut-off for these calls is given here.
# Experiments:
# [1] = Resistance factor, ratio of IC50 for human K562/VCR cells to IC50 for human K562 cells; assay type: functional
# K562 = assay: Antiproliferative activity against human K562 cells after 72 hrs by CCK8 assay; assay type: functional, cell-based; settings: K562, 72 h
# K562/VCR [2] = assay: Antiproliferative activity against human K562/VCR cells after 72 hrs by CCK8 assay; assay type: functional, cell-based
# K562/Adr = assay: Antiproliferative activity against human K562/ADR cells after 72 hrs by CCK8 assay; assay type: functional, cell-based
# K562/VCR [3] = assay: Induction of apoptosis in human K562/VCR cells assessed as late apoptotic cells at 0.05 uM after 48 hrs by annexin-V-FITC/propidium iodide staining-based flow cytometric method (reference value: 1.90%); assay type: functional
# [4] = biological target: c-Jun N-terminal kinase, JNK (Homo sapiens) (UniProt P45983+P53779+P45984); assay: Induction of JNK phosphorylation in human K562/VCR cells at 0.05 uM after 48 hrs by Western blot method relative to beta-actin; assay type: cell-based
# K562/VCR [5] = assay: Induction of apoptosis in human K562/VCR cells assessed as downregulation of CDK2 expression at 0.05 uM after 48 hrs by Western blot method relative to beta-actin; assay type: functional
# K562/VCR [6] = assay: Downregulation of MRP-1 expression in human K562/VCR cells at 0.05 uM after 48 hrs by Western blot method relative to beta-actin; assay type: functional
# K562/VCR [7] = assay: Cell cycle arrest in human K562/VCR cells assessed as accumulation at S phase at 0.05 uM after 48 hrs by propidium iodide staining-based flow cytometric method (reference value: 46.02%); assay type: functional
# [8] = biological target: RAC-alpha serine/threonine-protein kinase (Homo sapiens) (UniProt P31749); assay: Inhibition of AKT phosphorylation in human K562/VCR cells at 0.05 uM after 48 hrs by Western blot method relative to beta-actin; assay type: cell-based
# Sequence of RAC-alpha serine/threonine-protein kinase (Homo sapiens) (P31749 whole entry): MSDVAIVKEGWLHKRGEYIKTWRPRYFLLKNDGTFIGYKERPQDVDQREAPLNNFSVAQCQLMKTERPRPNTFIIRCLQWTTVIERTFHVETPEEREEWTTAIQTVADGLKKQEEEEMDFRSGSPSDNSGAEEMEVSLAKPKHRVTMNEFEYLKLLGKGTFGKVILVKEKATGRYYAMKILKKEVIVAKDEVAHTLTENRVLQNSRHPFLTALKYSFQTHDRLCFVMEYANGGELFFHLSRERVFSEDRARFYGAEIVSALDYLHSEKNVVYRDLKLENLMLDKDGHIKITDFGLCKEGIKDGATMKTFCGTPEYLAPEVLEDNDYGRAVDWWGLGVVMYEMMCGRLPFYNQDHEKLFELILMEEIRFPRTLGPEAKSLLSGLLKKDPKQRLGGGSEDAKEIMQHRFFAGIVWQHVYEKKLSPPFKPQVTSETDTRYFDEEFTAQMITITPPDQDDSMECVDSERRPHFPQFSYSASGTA
# K562/VCR [9] = assay: Reduction in mitochondrial membrane potential in human K562/VCR cells at 0.1 uM after 48 hrs by JC1 probe-based flow cytometric method (reference value: 2.65%); assay type: functional; set-up: scale not given: the % may be the effect or the level left
# K562/VCR [10] = assay: Induction of apoptosis in human K562/VCR cells assessed as necrotic cells at 0.05 uM after 48 hrs by annexin-V-FITC/propidium iodide staining-based flow cytometric method (reference value: 0.15%); assay type: functional
# K562/VCR [11] = assay: Induction of apoptosis in human K562/VCR cells assessed as viable cells at 0.05 uM after 48 hrs by annexin-V-FITC/propidium iodide staining-based flow cytometric method (reference value: 91.05%); assay type: functional; settings: read-out: Activity
# K562/VCR [12] = assay: Cell cycle arrest in human K562/VCR cells assessed as accumulation at G2 phase at 0.05 uM after 48 hrs by propidium iodide staining-based flow cytometric method (reference value: 7.78%); assay type: functional
# K562/VCR [13] = assay: Induction of reactive oxygen species formation in human K562/VCR cells at 0.05 uM after 24 hrs by DCFH-DA staining-based flow cytometric method (reference value: 0.41%); assay type: functional
# K562/VCR [14] = assay: Induction of apoptosis in human K562/VCR cells assessed as early apoptotic cells at 0.05 uM after 48 hrs by annexin-V-FITC/propidium iodide staining-based flow cytometric method (reference value: 6.90%); assay type: functional
# K562/VCR [15] = assay: Cell cycle arrest in human K562/VCR cells assessed as accumulation at G1 phase at 0.05 uM after 48 hrs by propidium iodide staining-based flow cytometric method (reference value: 46.20%); assay type: functional
# K562/VCR [16] = assay: Induction of autophagy in human K562/VCR cells assessed as upregulation of beclin-1 expression at 0.05 uM after 48 hrs by Western blot method relative to beta-actin; assay type: functional
# K562/VCR [17] = assay: Induction of autophagy in human K562/VCR cells assessed as upregulation of LC3-2 expression at 0.05 uM after 48 hrs by Western blot method relative to beta-actin; assay type: functional
# K562/VCR [18] = assay: Induction of apoptosis in human K562/VCR cells assessed as downregulation of CDK1 expression at 0.05 uM after 48 hrs by Western blot method relative to beta-actin; assay type: functional
# Homo sapiens = species on record: Homo sapiens; assay: Inhibition of alpha-tubulin polymerization in human K562/VCR cells assessed as disruption of microtubule organization at 0.05 uM after 24 hrs by DAPI staining-based immunofluorescence assay; assay type: cell-based
# K562/VCR [19] = assay: Induction of apoptosis in human K562/VCR cells assessed as upregulation of cleaved PARP expression at 0.05 uM after 48 hrs by Western blot method relative to beta-actin; assay type: functional
# K562/VCR [20] = assay: Downregulation of P-gp expression in human K562/VCR cells at 0.05 uM after 48 hrs by Western blot method relative to beta-actin; assay type: functional
structure (smiles),measurement,setting,value
COc1cc([C@@H]2c3cc4c(cc3[C@H](OC(=O)CCN3C(=O)/C(=C5\Nc6ccccc6C5=O)c5ccccc53)[C@H]3COC(=O)[C@H]23)OCO4)cc(OC)c1OC,Ratio IC50,[1],1.64
same,IC50,K562,1300 nM
same,IC50,K562/VCR [2],2140 nM
COc1cc([C@@H]2c3cc4c(cc3[C@H](OC(=O)CN3C(=O)C(=O)c5c(Br)cccc53)[C@H]3COC(=O)[C@H]23)OCO4)cc(OC)c1OC,IC50,K562/Adr,67 nM
COc1cc([C@@H]2c3cc4c(cc3[C@H](O)[C@H]3COC(=O)[C@H]23)OCO4)cc(OC)c1OC [PODOFILOX],Activity,K562/VCR [3],23.21%
same,fold change (FC),[4],1.04
same,fold change (FC),K562/VCR [5],0.37
same,fold change (FC),K562/VCR [6],0.22
same,Activity,K562/VCR [7],22.9%
same,fold change (FC),[8],0.33
same,Activity,K562/VCR [9],52.5%
same,Activity,K562/VCR [10],0.08%
same,viability at 0.05 µM,K562/VCR [11],48.6%
same,Activity,K562/VCR [12],59.28%
same,Ratio IC50,[1],2
same,IC50,K562,25 nM
same,Activity,K562/VCR [13],45.54%
same,Activity,K562/VCR [14],28.1%
same,Activity,K562/VCR [15],17.81%
same,fold change (FC),K562/VCR [16],0.78
same,IC50,K562/VCR [2],50 nM
same,fold change (FC),K562/VCR [17],0.65
same,fold change (FC),K562/VCR [18],0.27
same,inhibition,Homo sapiens,Active
same,fold change (FC),K562/VCR [19],0.61
same,fold change (FC),K562/VCR [20],0.27
COc1cc([C@@H]2c3cc4c(cc3[C@H](OC(=O)CCCCCN3C(=O)/C(=C5\Nc6ccccc6C5=O)c5ccccc53)[C@H]3COC(=O)[C@H]23)OCO4)cc(OC)c1OC,Ratio IC50,[1],5.02
same,IC50,K562,17000 nM
same,IC50,K562/VCR [2],85700 nM
COc1cc([C@@H]2c3cc4c(cc3[C@@H](O[C@@H]3O[C@@H]5CO[C@@H](C)O[C@H]5[C@H](O)[C@H]3O)[C@H]3COC(=O)[C@H]23)OCO4)cc(OC)c1O [ETOPOSIDE],Ratio IC50,[1],15.49
same,IC50,K562,764 nM
same,IC50,K562/VCR [2],11800 nM

# — ChEMBL document CHEMBL4118137, “Design, synthesis and antineoplastic activity of novel hybrids of podophyllotoxin and indirubin against human leukaemia cancer cells as multifunctional anti-MDR agents” (Bioorg Med Chem Lett, 2018)
